pEC50, pIC50, pKd: −log10 of the molar value. Active and inactive are the calls of the source. The rule behind the calls is not given here.
Tests used:
HT-29 [1] = assay: Anti-necroptosis activity against TSZ-induced human HT-29 cells; assay type: functional, cell-based
[2] = Apparent volume of distribution in BALB/c mouse at 10 mg/kg, iv; assay type: ADME, organism-based; details: in vivo, read-out: Vz
[3] = Half life in BALB/c mouse at 10 mg/kg, iv; assay type: ADME, organism-based; details: in vivo
[4] = target: BDNF/NT-3 growth factors receptor (Homo sapiens) (UniProt Q16620); assay: Inhibition of TRKB (unknown origin)
[5] = target: T1, Discoidin domain-containing receptor 2 (Homo sapiens) (UniProt Q16832); assay: Inhibition of DDR2 (unknown origin)
T1 sequence (whole entry): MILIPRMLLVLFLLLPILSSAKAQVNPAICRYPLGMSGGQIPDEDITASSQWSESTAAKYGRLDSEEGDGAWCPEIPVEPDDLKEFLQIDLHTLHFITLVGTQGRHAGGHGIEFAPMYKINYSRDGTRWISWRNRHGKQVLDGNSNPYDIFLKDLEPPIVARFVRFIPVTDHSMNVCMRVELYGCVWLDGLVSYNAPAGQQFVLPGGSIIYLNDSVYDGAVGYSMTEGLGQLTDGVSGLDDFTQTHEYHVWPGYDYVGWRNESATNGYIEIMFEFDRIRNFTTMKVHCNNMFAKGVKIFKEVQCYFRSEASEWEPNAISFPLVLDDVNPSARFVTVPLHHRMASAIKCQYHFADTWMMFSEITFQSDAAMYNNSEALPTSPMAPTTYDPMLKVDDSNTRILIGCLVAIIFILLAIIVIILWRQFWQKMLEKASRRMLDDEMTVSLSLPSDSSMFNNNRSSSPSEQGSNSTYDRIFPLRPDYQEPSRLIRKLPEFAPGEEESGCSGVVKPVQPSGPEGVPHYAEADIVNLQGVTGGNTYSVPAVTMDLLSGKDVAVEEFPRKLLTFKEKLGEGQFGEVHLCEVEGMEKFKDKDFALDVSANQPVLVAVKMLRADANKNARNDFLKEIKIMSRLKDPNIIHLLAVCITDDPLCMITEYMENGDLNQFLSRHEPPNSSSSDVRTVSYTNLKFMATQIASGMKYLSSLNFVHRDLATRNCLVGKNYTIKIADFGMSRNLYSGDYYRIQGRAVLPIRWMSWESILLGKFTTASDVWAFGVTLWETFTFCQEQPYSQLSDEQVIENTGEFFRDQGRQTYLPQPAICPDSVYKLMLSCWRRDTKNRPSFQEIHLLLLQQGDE

[6] = AUC (0 to t) in BALB/c mouse at 10 mg/kg, po; assay type: ADME, organism-based; details: BALB/c, in vivo
[7] = target: T2, Receptor-interacting serine/threonine-protein kinase 1 (Homo sapiens, UniProt Q13546); assay: Inhibition of RIPK1 (unknown origin) in presence of ATP by kinaseProfiler assay
T2 sequence (Q13546 whole entry): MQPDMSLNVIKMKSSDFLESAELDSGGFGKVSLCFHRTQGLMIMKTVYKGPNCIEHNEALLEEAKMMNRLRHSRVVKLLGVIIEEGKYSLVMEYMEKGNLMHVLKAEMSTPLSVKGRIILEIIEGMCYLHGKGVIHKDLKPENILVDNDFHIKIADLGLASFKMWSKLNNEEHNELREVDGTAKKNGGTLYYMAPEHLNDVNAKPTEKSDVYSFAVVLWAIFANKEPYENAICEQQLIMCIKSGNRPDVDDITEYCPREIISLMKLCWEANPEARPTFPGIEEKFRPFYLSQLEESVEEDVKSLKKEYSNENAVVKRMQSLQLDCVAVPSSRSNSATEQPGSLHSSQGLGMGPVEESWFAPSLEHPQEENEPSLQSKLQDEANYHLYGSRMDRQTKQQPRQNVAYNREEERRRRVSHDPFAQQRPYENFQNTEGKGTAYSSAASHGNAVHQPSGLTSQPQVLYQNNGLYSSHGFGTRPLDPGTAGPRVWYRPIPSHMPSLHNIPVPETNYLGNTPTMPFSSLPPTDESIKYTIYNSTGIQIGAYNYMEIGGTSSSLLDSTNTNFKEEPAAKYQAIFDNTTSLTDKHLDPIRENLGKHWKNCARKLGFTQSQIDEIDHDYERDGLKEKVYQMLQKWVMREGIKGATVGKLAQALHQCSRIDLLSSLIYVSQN

[8] = Tmax in BALB/c mouse at 10 mg/kg, iv; assay type: ADME, organism-based; details: in vivo
[9] = AUC (0 to t) in BALB/c mouse at 10 mg/kg, iv; assay type: ADME, organism-based; details: BALB/c, in vivo
[10] = target: Vascular endothelial growth factor receptor 1 (Homo sapiens) (UniProt P17948); assay: Inhibition of FLT1 (unknown origin)
[11] = Cmax in BALB/c mouse at 10 mg/kg, iv; assay type: ADME, organism-based; details: in vivo
[12] = Selectivity ratio of Kd for binding affinity to RIPK1 (unknown origin) assessed as dissociation constant to Kd for binding affinity to RIPK3 (unknown origin) assessed as dissociation constant
[13] = target: Vascular endothelial growth factor receptor 3 (Homo sapiens) (UniProt P35916); assay: Inhibition of FLT4 (unknown origin)
[14] = target: High affinity nerve growth factor receptor (Homo sapiens) (UniProt P04629); assay: Inhibition of TRKA (unknown origin)
[15] = target: T2, Receptor-interacting serine/threonine-protein kinase 1; assay: Binding affinity to RIPK1 (unknown origin) assessed as dissociation constant
[16] = target: T3, Receptor-interacting serine/threonine-protein kinase 3 (Homo sapiens, UniProt Q9Y572); assay: Binding affinity to RIPK3 (unknown origin) assessed as dissociation constant
Target sequence in this assay (Q9Y572 whole entry): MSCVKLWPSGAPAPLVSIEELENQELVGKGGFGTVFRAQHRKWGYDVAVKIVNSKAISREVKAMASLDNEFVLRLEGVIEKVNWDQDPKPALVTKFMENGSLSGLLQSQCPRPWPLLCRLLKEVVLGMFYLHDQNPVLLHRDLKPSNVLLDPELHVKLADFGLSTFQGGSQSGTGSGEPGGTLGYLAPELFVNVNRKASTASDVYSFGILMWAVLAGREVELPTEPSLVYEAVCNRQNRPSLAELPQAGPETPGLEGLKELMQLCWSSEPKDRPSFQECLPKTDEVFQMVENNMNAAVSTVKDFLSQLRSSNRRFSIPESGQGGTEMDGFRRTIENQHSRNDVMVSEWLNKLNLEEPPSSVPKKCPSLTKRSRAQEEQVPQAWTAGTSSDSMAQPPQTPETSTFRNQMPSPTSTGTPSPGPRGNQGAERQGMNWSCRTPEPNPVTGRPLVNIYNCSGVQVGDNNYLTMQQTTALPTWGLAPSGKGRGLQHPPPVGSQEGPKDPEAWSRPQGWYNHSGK

[17] = target: T3, Receptor-interacting serine/threonine-protein kinase 3; details: HT-29, dose 3.0 nM, time 6.0 hrs
Target sequence in this assay (Q9Y572 whole entry, looked up): as the sequence (Q9Y572 whole entry) above

[18] = target: T4, Receptor-interacting serine/threonine-protein kinase 1 (Homo sapiens) (UniProt Q13546); details: HT-29, dose 300.0 nM, time <= 6.0 hrs, TDE = time-dependent effect
T4 sequence (whole entry): T2 sequence (Q13546 whole entry)
Description: Inhibition of RIPK1 phosphorylation in TSZ-induced human HT-29 cells at 300 nM by Western blot analysis

[19] = target: Eukaryotic translation initiation factor 2-alpha kinase 1 (Homo sapiens) (UniProt Q9BQI3); assay: Inhibition of HRI (unknown origin)
[20] = Cmax in BALB/c mouse at 10 mg/kg, po; assay type: ADME, organism-based; details: in vivo
[21] = target: Tyrosine-protein kinase Lyn (Homo sapiens) (UniProt P07948); assay: Inhibition of LYN (unknown origin)
[22] = Half life in BALB/c mouse at 10 mg/kg, po; assay type: ADME, organism-based; details: BALB/c, in vivo
Mus musculus [23] = assay: In vivo anti-necrotptic activity in po dosed SIRS mouse model assessed as reduction in IL-6 level measured at 4 hrs; assay type: functional, organism-based; details: dose 2.5-10 mg/kg
U-937 = assay: Anti-necroptosis activity against TSZ-induced human U-937 cells; assay type: functional, cell-based
Mus musculus [24] = assay: In vivo anti-necrotptic activity in SIRS mouse model assessed as protection from body temperature loss at 10 mg/kg, po measured upto 6 hrs; assay type: functional, organism-based
[25] = target: T3, Receptor-interacting serine/threonine-protein kinase 3; details: HT-29, dose 300.0 nM, time <= 6.0 hrs, TDE = time-dependent effect
Target sequence in this assay (Q9Y572 whole entry, looked up): as the sequence (Q9Y572 whole entry) above
Description: Inhibition of RIPK3 phosphorylation in TSZ-induced human HT-29 cells at 300 nM by Western blot analysis

HT-29 [26] = assay: Anti-necroptosis activity against TSZ-induced human HT-29 cells by microscopic analysis; assay type: functional, cell-based

Chain of High affinity nerve growth factor receptor (Homo sapiens) (P04629 33-796 limits assumed): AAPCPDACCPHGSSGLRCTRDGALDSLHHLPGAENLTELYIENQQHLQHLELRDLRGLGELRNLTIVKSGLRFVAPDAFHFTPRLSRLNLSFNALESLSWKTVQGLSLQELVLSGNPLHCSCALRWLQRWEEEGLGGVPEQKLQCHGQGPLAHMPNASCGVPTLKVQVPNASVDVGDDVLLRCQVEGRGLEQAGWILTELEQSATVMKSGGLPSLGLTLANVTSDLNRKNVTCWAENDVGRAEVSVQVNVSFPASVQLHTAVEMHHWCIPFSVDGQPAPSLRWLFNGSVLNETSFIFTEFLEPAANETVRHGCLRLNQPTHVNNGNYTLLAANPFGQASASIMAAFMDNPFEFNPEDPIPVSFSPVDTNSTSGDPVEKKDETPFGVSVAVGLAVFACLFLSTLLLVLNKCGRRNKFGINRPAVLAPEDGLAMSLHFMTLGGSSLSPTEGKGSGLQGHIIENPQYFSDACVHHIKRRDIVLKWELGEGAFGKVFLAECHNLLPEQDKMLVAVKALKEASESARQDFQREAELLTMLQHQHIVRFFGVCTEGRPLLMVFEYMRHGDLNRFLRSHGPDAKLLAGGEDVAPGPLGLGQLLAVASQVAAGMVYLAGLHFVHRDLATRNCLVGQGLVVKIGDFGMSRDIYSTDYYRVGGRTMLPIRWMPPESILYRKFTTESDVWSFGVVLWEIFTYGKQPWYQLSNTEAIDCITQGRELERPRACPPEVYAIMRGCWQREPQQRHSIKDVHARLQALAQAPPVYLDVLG
Chain of Vascular endothelial growth factor receptor 1 (Homo sapiens) (P17948 whole entry): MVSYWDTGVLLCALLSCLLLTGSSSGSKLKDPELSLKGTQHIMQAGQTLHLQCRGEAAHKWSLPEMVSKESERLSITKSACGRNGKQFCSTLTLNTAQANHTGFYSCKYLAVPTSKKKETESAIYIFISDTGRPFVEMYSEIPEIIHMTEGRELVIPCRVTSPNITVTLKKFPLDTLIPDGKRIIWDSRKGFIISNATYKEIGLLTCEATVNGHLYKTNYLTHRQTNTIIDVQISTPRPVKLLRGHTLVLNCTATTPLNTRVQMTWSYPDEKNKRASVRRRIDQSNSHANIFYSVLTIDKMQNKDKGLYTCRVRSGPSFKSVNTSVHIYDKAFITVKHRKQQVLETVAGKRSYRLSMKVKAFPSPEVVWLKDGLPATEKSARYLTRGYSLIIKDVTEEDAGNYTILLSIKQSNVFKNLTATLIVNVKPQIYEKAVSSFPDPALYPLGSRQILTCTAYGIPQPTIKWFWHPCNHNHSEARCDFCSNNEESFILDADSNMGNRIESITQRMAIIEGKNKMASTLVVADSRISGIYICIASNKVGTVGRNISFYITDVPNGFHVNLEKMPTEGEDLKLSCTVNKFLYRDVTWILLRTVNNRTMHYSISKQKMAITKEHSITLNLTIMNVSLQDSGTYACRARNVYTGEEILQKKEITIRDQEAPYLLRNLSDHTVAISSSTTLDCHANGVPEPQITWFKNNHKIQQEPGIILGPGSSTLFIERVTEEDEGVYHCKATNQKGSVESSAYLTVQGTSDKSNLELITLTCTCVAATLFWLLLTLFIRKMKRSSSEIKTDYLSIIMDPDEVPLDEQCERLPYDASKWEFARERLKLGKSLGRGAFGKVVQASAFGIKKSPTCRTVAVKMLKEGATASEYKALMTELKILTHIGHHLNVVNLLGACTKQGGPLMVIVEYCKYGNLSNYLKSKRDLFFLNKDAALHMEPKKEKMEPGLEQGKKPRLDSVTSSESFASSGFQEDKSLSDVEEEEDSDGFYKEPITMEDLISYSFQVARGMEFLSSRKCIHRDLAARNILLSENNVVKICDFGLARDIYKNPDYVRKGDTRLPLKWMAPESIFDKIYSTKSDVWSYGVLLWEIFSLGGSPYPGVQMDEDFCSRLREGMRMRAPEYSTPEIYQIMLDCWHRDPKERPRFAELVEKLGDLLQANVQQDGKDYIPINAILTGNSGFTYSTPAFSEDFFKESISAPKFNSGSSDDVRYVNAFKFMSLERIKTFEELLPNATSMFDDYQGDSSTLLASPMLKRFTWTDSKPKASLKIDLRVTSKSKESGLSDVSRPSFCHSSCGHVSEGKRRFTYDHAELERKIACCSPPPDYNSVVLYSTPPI
Chain of Eukaryotic translation initiation factor 2-alpha kinase 1 (Homo sapiens) (Q9BQI3 whole entry): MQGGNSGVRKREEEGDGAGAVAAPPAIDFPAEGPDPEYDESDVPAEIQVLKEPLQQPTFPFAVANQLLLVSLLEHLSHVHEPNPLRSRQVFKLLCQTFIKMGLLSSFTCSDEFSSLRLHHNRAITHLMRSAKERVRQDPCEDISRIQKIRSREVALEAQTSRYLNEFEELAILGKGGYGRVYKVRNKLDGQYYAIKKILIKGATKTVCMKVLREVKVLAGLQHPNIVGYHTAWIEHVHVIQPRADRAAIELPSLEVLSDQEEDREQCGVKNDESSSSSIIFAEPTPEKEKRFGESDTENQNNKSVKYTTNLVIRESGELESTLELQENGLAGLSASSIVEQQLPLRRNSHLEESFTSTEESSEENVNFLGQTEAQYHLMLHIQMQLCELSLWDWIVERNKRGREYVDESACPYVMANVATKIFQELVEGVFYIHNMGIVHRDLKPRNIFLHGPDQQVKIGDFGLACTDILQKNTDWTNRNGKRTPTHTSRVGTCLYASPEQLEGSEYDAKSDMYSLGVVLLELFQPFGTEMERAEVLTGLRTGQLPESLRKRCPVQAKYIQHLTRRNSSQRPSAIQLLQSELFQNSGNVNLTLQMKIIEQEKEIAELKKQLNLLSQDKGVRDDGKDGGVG
Chain of Vascular endothelial growth factor receptor 3 (Homo sapiens) (P35916 whole entry): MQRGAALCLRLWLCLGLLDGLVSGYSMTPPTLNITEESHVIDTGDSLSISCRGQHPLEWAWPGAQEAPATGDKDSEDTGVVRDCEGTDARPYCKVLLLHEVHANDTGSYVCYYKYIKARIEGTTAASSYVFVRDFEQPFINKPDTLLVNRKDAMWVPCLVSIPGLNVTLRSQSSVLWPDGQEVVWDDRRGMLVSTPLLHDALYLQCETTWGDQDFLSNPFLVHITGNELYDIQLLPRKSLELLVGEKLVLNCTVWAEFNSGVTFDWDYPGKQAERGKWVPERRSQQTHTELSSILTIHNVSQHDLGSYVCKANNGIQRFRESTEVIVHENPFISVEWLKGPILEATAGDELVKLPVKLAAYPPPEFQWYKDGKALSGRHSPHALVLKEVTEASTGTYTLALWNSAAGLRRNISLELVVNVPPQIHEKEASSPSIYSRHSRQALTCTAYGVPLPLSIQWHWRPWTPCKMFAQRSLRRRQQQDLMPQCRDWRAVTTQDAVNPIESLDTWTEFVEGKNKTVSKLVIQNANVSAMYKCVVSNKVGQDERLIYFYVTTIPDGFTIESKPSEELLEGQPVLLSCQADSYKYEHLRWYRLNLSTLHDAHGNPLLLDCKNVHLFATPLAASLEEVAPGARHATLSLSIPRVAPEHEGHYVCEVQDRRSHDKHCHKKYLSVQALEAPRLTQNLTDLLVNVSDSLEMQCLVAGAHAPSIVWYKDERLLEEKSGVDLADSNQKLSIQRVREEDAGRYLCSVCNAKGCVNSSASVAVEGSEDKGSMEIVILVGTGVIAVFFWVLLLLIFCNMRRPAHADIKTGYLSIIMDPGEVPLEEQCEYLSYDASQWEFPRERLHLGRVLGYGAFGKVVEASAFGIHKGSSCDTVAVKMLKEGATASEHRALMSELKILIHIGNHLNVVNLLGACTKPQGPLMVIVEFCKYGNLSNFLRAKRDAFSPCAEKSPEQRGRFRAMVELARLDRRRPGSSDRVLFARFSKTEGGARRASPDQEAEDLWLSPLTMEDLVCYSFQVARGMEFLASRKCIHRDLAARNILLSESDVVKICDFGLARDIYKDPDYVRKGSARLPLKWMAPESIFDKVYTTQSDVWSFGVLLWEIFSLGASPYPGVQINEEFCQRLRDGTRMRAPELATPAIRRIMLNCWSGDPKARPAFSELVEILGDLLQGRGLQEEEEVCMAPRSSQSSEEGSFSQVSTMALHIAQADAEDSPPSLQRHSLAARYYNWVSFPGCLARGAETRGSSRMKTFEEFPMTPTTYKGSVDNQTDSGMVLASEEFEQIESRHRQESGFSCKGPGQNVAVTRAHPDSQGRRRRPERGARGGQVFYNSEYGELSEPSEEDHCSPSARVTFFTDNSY

## CC1(Cn2cc(-c3ccc4c(c3)CCN4C(=O)Cc3cccc(OC(F)(F)F)c3)c3c(N)n[nH]c(=O)c32)COC1
HT-29 [1]
  pEC50: 8.34
[2]
  Vd: 1.24 L/kg
[3]
  half-life: 49.8 min
[4]
  inhibition: Active
[5]
  inhibition: Active
[6]
  AUC(0-t): 9640 ng·h/mL
[7]
  pIC50: 7.22
[8]
  Tmax: 4.8 min
[9]
  AUC(0-t): 9640 ng·h/mL
[10]
  inhibition: Active
[11]
  Cmax: 8040 ng/mL
[12]
  Selectivity ratio: 486
[13]
  inhibition: Active
[14]
  inhibition: Active
[15]
  pKd: 8.46
[16]
  pKd: 5.77
[17]
  inhibition: Dose-Dependent Effect
[18]
  inhibition: Tde
[19]
  inhibition: Active
[20]
  Cmax: 2700 ng/mL
[21]
  inhibition: Active
[22]
  half-life: 62.4 min
Mus musculus [23]
  Activity: Dose-Dependent Effect
U-937
  pEC50: 8.51
Mus musculus [24]
  Activity: Active
[25]
  inhibition: Tde
HT-29 [26]
  Activity: Active
